The values that follow come from US20220241249A1, “PHARMACEUTICAL COMPOSITION AND KIT CONTAINING NOVEL PENAM DERIVATIVE OR SALT THEREOF AND ONE OR MORE COMPOUNDS SELECTED FROM beta-LACTAMASE INHIBITORY COMPOUND AND ANTIBACTERIAL COMPOUND OR SALTS THEREOF” (priority 2019, published 2022).

The term MIC denotes the lowest concentration that inhibits growth of the organism.

What all share (assay): Antibacterial activity evaluation test, MIC by broth microdilution (CLSI)
Holding throughout (type): cell-based
A general note: Broth dilution looks for growth in wells or tubes with falling amounts of substance.

For assay [1], the system named is NDM-1-containing Klebsiella pneumoniae strain (Y-1007). The settings on record: for MIC: Klebsiella pneumoniae. As for the experimental part:
(§1) The minimum inhibitory concentration (MIC) was measured according to the Clinical and Laboratory Standards Institute (CLSI) standard method by using the following broth microdilution method.
(§2) As bacteria, a Pseudomonas aeruginosa strain ATCC27853, an AmpC-derepressed Pseudomonas aeruginosa mutant strain (S-3028), an IMP-1-containing Pseudomonas aeruginosa strain (S-2838), a VIM-2-containing Pseudomonas aeruginosa strain (S-3779), a GES-19 and GES-20-containing Pseudomonas aeruginosa strain (S-3759), a CTX-M-15-containing Escherichia coli strain (TK-1747), a KPC-2-containing Klebsiella pneumoniae strain (Y-995), an OXA-48-containing Klebsiella pneumoniae strain (Y-1062), and an NDM-1-containing Klebsiella pneumoniae strain (Y-1007) were used. The test bacterial cells that had been cultured overnight on a Mueller Hinton agar medium were scraped off, suspended at a density equivalent to 0.5 McFarland standard, and diluted 10-fold, thereby obtaining an inoculum. A cation-adjusted Mueller Hinton medium containing a test compound was inoculated with 0.005 mL of the inoculum, and the cells were cultured at 35° C. for 16 to 20 hours. The minimum drug concentration at which the growth of bacteria was not visually observed was defined as MIC (μg/mL).
(§3) An antibacterial activity evaluation test was performed in the same manner as in Test Example 1.

Assay [2] concerns VIM-2-containing Pseudomonas aeruginosa strain (S-3779). The settings on record: for MIC: Pseudomonas aeruginosa. Here is the method: as §1, §2, §3
In assay [3] the test system is CTX-M-15-containing Escherichia coli strain (TK-1747). The settings on record: for MIC: Escherichia coli. As for the experimental part: as §1, §2, §3
The subject of assay [4] is AmpC-derepressed Pseudomonas aeruginosa mutant strain (S-3028). As to conditions: for MIC: Pseudomonas aeruginosa. Here is the method:
as §1, §2, §3

Assay [5] relates to Pseudomonas aeruginosa strain ATCC27853. As to conditions: ATCC27853. As for the experimental part: as §1, §2, §3
Assay [6] relates to OXA-48-containing Klebsiella pneumoniae strain (Y-1062). As to conditions: for MIC: Klebsiella pneumoniae. Here is the method: as §1, §2, §3
Assay [7] concerns GES-19 and GES-20-containing Pseudomonas aeruginosa strain (S-3759). The settings on record: for MIC: Pseudomonas aeruginosa. Here is the method:
as §1, §2, §3

Assay [8] deals with KPC-2-containing Klebsiella pneumoniae strain (Y-995). As to conditions: for MIC: Klebsiella pneumoniae. As for the experimental part:
as §1, §2, §3

For assay [9], the system named is IMP-1-containing Pseudomonas aeruginosa strain (S-2838). As to conditions: for MIC: Pseudomonas aeruginosa. As for the experimental part: as §1, §2, §3

The structures appear in SMILES notation. Converted amounts (≈) assume the structure as drawn. Read-outs that look alike come from different tables or passages of the source. Bounds are passed on as bounds.

`CCC[C@H](O/N=C(\C(=O)NC1C(=O)N2C[C@@](C(=O)O)(N3CCN(NC(=O)C(=O)c4ccc(O)c(O)c4Cl)C3=O)S[C@H]12)c1csc(N)n1)C(=O)O` (stereo partly drawn) [Example 115, (3R,5R,6R)-6-((Z)-2-(2-aminothiazol-4-yl)-2-(((S)-1-carboxy-butoxy)imino)aceta-mido)-3-(3-(2-(2-chloro-3,4-dihydroxy-phenyl)-2-oxoaceta-mido)-2-oxoimidazol-idin-1-yl)-7-oxo-4-thia-1-azabicyclo[3.2.0]-heptane-3-carboxylic acid]: the MIC in assay [1] was under 0.06 µg/mL; in assay [2], 0.5 µg/mL (≈ 0.662 µM); in assay [3], 0.25 µg/mL (≈ 0.331 µM); in assay [4], 0.12 µg/mL (≈ 0.159 µM); in assay [5] (Pseudomonas aeruginosa), 0.5 µg/mL (≈ 0.662 µM); in assay [6], 1 µg/mL (≈ 1.32 µM). The MIC worked out at 0.5 µg/mL (≈ 0.662 µM) in [7], 0.25 µg/mL (≈ 0.331 µM) in [8] and 1 µg/mL (≈ 1.32 µM) in [9].
For the compound `CC(C)(O/N=C(\C(=O)N[C@@H]1C(=O)N2C[C@@](C(=O)O)(N3CCN(NC(=O)C(=O)N(O)CCNC(=O)c4ccc(O)c(O)c4Cl)C3=O)S[C@H]12)c1csc(N)n1)C(=O)O` [Example 104, (3R,5R,6R)-6-((Z)-2-(2-aminothiazol-4-yl)-2-(((2-carboxypropan-2-yl)oxy)imino)acetamido)-3-(3-(2-((2-(2-chloro-3,4-dihydroxybenzamido)ethyl)(hydroxy)amino)-2-oxoacetamido)-2-oxoimidazolidin-1-yl)-7-oxo-4-thia-1-azabicyclo[3.2.0]heptane-3-carboxylic acid], the MIC in assay [1] is under 0.06 µg/mL; in [2] it was 1 µg/mL (≈ 1.19 µM); in assay [3], 1 µg/mL (≈ 1.19 µM); in assay [4], 2 µg/mL (≈ 2.37 µM); in assay [5] (Pseudomonas aeruginosa ATCC 27853, 35° C., 16 to 20 hours, read-out: MIC), 2 µg/mL (≈ 2.37 µM); in assay [6], 2 µg/mL (≈ 2.37 µM). Moreover, the MIC in assay [7] was 4 µg/mL (≈ 4.74 µM); in assay [8], 2 µg/mL (≈ 2.37 µM); in assay [9], 0.5 µg/mL (≈ 0.593 µM).
As to `CC(C)(O/N=C(\C(=O)NC1C(=O)N2C[C@@](C(=O)O)(N3CCN(NC(=O)C(=O)NCCNC(=O)C(=O)c4ccc(O)c(O)c4Cl)C3=O)S[C@H]12)c1csc(N)n1)C(=O)O` (stereo partly drawn) [Example 121, (3R,5R,6R)-6-((Z)-2-(2-aminothiazol-4-yl)-2-(((2-carboxypropan-2-yl)oxy)imino)aceta-mido)-3-(3-(2-((2-(2-(2-chloro-3,4-dihydroxy-phenyl)-2-oxoaceta-mido)ethyl)amino)-2-oxoacetamido)-2-oxo-imidazolidin-1-yl)-7-oxo-4-thia-1-azabicyclo-[3.2.0]heptane-3-carbox-ylic acid], the MIC in assay [1] is 0.12 µg/mL (≈ 0.14 µM); in [2] it was 1 µg/mL (≈ 1.17 µM); in assay [3], under 0.06 µg/mL; in assay [4], 2 µg/mL (≈ 2.34 µM); in assay [5] (Pseudomonas aeruginosa) it was 2 µg/mL (≈ 2.34 µM); in [6] it was 0.5 µg/mL (≈ 0.585 µM). The MIC came to 2 µg/mL (≈ 2.34 µM) in assay [7], 0.25 µg/mL (≈ 0.292 µM) in assay [8] and 4 µg/mL (≈ 4.68 µM) in assay [9].
Consider `CC(C)(O/N=C(\C(=O)N[C@@H]1C(=O)N2C[C@@](C(=O)O)(N3CCN(NC(=O)CCNC(=O)c4ccc(O)c(O)c4Cl)C3=O)S[C@H]12)c1csc(N)n1)C(=O)O` [Example 28, (3R,5R,6R)-6-((Z)-2-(2-aminothiazol-4-yl)-2-(((2-carboxypropan-2-yl)oxy)imino)acetamido)-3-(3-(3-(2-chloro-3,4-dihydroxybenzamido)propanamido)-2-oxoimidazolidin-1-yl)-7-oxo-4-thia-1-azabicyclo[3.2.0]heptane-3-carboxylic acid], for which the MIC in assay [1] was under 0.06 µg/mL; in assay [2], 0.5 µg/mL (≈ 0.638 µM); in assay [3] it was 2 µg/mL (≈ 2.55 µM); in [4], 0.25 µg/mL (≈ 0.319 µM); in assay [5] (Pseudomonas aeruginosa) it was 0.5 µg/mL (≈ 0.638 µM); in assay [6], 0.25 µg/mL (≈ 0.319 µM). The MIC stood at 2 µg/mL (≈ 2.55 µM) in assay [7], 1 µg/mL (≈ 1.28 µM) in assay [8] and 0.25 µg/mL (≈ 0.319 µM) in assay [9].
With `CC(C)(O/N=C(\C(=O)N[C@@H]1C(=O)N2C[C@@](C(=O)O)(N3CCN(NC(=O)C(=O)NNC(=O)C(=O)c4ccc(O)c(O)c4Cl)C3=O)S[C@H]12)c1csc(N)n1)C(=O)O` [Example 88, (3R,5R,6R)-6-((Z)-2-(2-aminothiazol-4-yl)-2-(((2-carboxypropan-2-yl)oxy)imino)acetamido)-3-(3-(2-(2-(2-(2-chloro-3,4-dihydroxyphenyl)-2-oxoacetyl)hydradienyl)-2-oxoacetamido)-2-oxoimidazolidin-1-yl)-7-oxo-4-thia-1-azabicyclo[3.2.0]heptane-3-carboxylic acid], the MIC in assay [1] was under 0.06 µg/mL; in assay [2], 0.5 µg/mL (≈ 0.604 µM); in assay [3] it was 2 µg/mL (≈ 2.42 µM); in [4], 0.5 µg/mL (≈ 0.604 µM); in assay [5] (Pseudomonas aeruginosa), 0.5 µg/mL (≈ 0.604 µM); in assay [6], 0.5 µg/mL (≈ 0.604 µM). The MIC came to 0.5 µg/mL (≈ 0.604 µM) in assay [7], 0.25 µg/mL (≈ 0.302 µM) in assay [8] and 0.5 µg/mL (≈ 0.604 µM) in assay [9].
With `CC(C)(O/N=C(\C(=O)NC1C(=O)N2C[C@@](C(=O)O)(N3CCN(NC(=O)C(=O)c4cc(O)c(O)cc4F)C3=O)S[C@H]12)c1csc(N)n1)C(=O)O` (stereo partly drawn) [Example 147, (3R,5R,6R)-6-((Z)-2-(2-aminothiazol-4-yl)-2-(((2-carboxypropan-2-yl)oxy)imino)aceta-mido)-3-(3-(2-(2-fluoro-4,5-dihydroxy-phenyl)-2-oxoaceta-mido)-2-oxoimidazol-idin-1-yl)-7-oxo-4-thia-1-azabicyclo[3.2.0]-heptane-3-carboxylic acid], the Antibacterial activity (MIC) Klebsiella pneumoniae Y-1007 in [1] (Klebsiella pneumoniae Y-1007) was under 0.06 µg/mL. In [2] (Pseudomonas aeruginosa S-3779), this compound had an Antibacterial activity (MIC) Pseudomonas aeruginosa S-3779 of 1 µg/mL. The compound further gave an Antibacterial activity (MIC) Escherichia coli TK-1747 in [3] (Escherichia coli TK-1747) of 1 µg/mL. Also, the Antibacterial activity (MIC) Pseudomonas aeruginosa S-3028 in assay [4] (Pseudomonas aeruginosa S-3028) was determined as 0.5 µg/mL. In addition, in assay [5] (Pseudomonas aeruginosa), the Antibacterial activity (MIC) Pseudomonas aeruginosa ATCC 27853 amounted to 1 µg/mL. In assay [6] (Klebsiella pneumoniae Y-1062), the Antibacterial activity (MIC) Klebsiella pneumoniae Y-1062 came out at 4 µg/mL. Besides, the Antibacterial activity (MIC) Pseudomonas aeruginosa S-3759 in assay [7] (Pseudomonas aeruginosa S-3759) stood at 1 µg/mL. The same compound gave an Antibacterial activity (MIC) Klebsiella pneumoniae Y-995 in assay [8] (Klebsiella pneumoniae Y-995) of 0.25 µg/mL. In assay [9] (Pseudomonas aeruginosa S-2838), this compound returned an Antibacterial activity (MIC) Pseudomonas aeruginosa S-2838 of 4 µg/mL.
`CC(C)(O/N=C(\C(=O)N[C@@H]1C(=O)N2C[C@@](C(=O)O)(N3CCN(/N=C/C=N/NC(=O)NCCNC(=O)c4ccc(O)c(O)c4Cl)C3=O)S[C@H]12)c1csc(N)n1)C(=O)O` [Example 53, (3R,5R,6R)-6-((Z)-2-(2-aminothiazol-4-yl)-2-(((2-carboxypropan-2-yl)oxy)imino)acetamido)-3-(3-(((1E,2E)-2-(2-((2-(2-chloro-3,4-dihydroxybenzamido)ethyl)carbamoyl)hydrazono)ethylidene)amino)-2-oxoimidazolidin-1-yl)-7-oxo-4-thia-1-azabicyclo[3.2.0]heptane-3-carboxylic acid]: the MIC in assay [1] was determined as 0.12 µg/mL (≈ 0.141 µM); in assay [2], 0.5 µg/mL (≈ 0.586 µM); in assay [3], 2 µg/mL (≈ 2.34 µM); in assay [4], 1 µg/mL (≈ 1.17 µM); in assay [5] (Pseudomonas aeruginosa) it was 0.5 µg/mL (≈ 0.586 µM); in assay [6], 0.5 µg/mL (≈ 0.586 µM). The MIC was 2 µg/mL (≈ 2.34 µM) in [7], 2 µg/mL (≈ 2.34 µM) in assay [8] and 4 µg/mL (≈ 4.69 µM) in [9].
With `Nc1nc(/C(=N/OC2(C(=O)O)CCC2)C(=O)N[C@@H]2C(=O)N3C[C@@](C(=O)O)(N4CCN(NC(=O)C(=O)c5ccc(O)c(O)c5Cl)C4=O)S[C@H]23)c(Cl)s1` [Example 78, (3R,5R,6R)-6-((Z)-2-(2-amino-5-chlorothiazol-4-yl)-2-((1-carboxycyclobutoxy)imino)acetamido)-3-(3-(2-(2-chloro-3,4-dihydroxyphenyl)-2-oxoacetamido)-2-oxoimidazolidin-1-yl)-7-oxo-4-thia-1-azabicyclo[3.2.0]heptane-3-carboxylic acid], the MIC in [1] is under 0.06 µg/mL; in [2], 0.25 µg/mL (≈ 0.317 µM); in assay [3] it was 0.25 µg/mL (≈ 0.317 µM); in [4], under 0.06 µg/mL; in assay [5] (Pseudomonas aeruginosa), 0.5 µg/mL (≈ 0.635 µM); in [6], 0.25 µg/mL (≈ 0.317 µM). The MIC in assay [7] came out at 1 µg/mL (≈ 1.27 µM); in assay [8], 0.25 µg/mL (≈ 0.317 µM); in assay [9] it was 1 µg/mL (≈ 1.27 µM).
In the case of `CC(C)(O/N=C(\C(=O)N[C@@H]1C(=O)N2C[C@@](C(=O)O)(N3CCN(NC(=O)c4cc(Cl)c(O)c(O)c4Cl)C3=O)S[C@H]12)c1csc(N)n1)C(=O)O` [Example 83, (3R,5R,6R)-6-((Z)-2-(2-aminothiazol-4-yl)-2-(((2-carboxypropan-2-yl)oxy)imino)acetamido)-3-(3-(2,5-dichloro-3,4-dihydroxybenzamido)-2-oxoimidazolidin-1-yl)-7-oxo-4-thia-1-azabicyclo[3.2.0]heptane-3-carboxylic acid], the MIC in [1] was under 0.06 µg/mL; in assay [2] it was 0.5 µg/mL (≈ 0.669 µM); in assay [3], 0.5 µg/mL (≈ 0.669 µM); in assay [4], 0.5 µg/mL (≈ 0.669 µM); in [5] (Pseudomonas aeruginosa) it was 0.25 µg/mL (≈ 0.334 µM); in assay [6], 2 µg/mL (≈ 2.68 µM). Moreover, the MIC was determined as 1 µg/mL (≈ 1.34 µM) in [7], 0.25 µg/mL (≈ 0.334 µM) in assay [8] and 0.5 µg/mL (≈ 0.669 µM) in assay [9].
